Results: PubChem BioAssay (NCI)
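48-hour exposure; five concentrations; linearly interpolated endpoints. GI50 marks 50% less growth. TGI: concentration producing complete growth inhibition.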

Experiments:
Test in all cases: inhibition of tumour cell growth, NCI panel, 48 h
A498 renal = test system: A498 renal
M14 melanoma = test system: M14 melanoma
UO-31 renal = test system: UO-31 renal
SF-539 CNS = test system: SF-539 CNS
SF-268 CNS = test system: SF-268 CNS
T-47D breast = test system: T-47D breast
CCRF-CEM leukemia = test system: CCRF-CEM leukemia
HS 578T breast = test system: HS 578T breast
OVCAR-4 ovarian = test system: OVCAR-4 ovarian
OVCAR-3 ovarian = test system: OVCAR-3 ovarian

Compound | TGI (A498 renal) [µM] | TGI (M14 melanoma) [µM] | TGI (UO-31 renal) [µM] | TGI (SF-539 CNS) [µM] | TGI (SF-268 CNS) [µM] | TGI (T-47D breast) [µM] | TGI (CCRF-CEM leukemia) [µM] | TGI (HS 578T breast) [µM] | TGI (OVCAR-4 ovarian) [µM] | TGI (OVCAR-3 ovarian) [µM] | GI50 (A498 renal) [µM]
CC1CC[C@@]2(OC1)O[C@H]1C[C@H]3[C@@H]4CC[C@H]5C[C@@H](OC6OC(CO)C(OC7OC(CO)C(OC8OC(CO)C(O)C(OC9OC(C)C(OC%10OC(C)C(O)C(O)C%10O)C(O)C9O)C8OC8OCC(O)C(O)C8O)C(O)C7O)C(O)C6O)CC[C@]5(C)[C@H]4CC(=O)[C@]3(C)[C@H]1[C@@H]2C (some centres undefined) | 32.1 | 41.7 | 44.5 | 28.5 | 56.9 | 43.2 | 29.2 | 50.7 | 32.7 | 42.3 | 
CCCC(CC)c1c(O)c(O)c(C(CC)CCC)c(C(CC)CCC)c1C(CC)CCC (centres undefined) | > 10 | > 10 | > 10 | > 10 | > 10 | > 10 | > 10 | > 10 | > 10 | > 10 | 
CCOC(=O)c1c2c(n(-c3ccc(OC)cc3)c1C)C(=O)C(=O)c1ccccc1-2 | 3.97 | 3.17 |  | 1.76 | 3.76 | 4.44 | > 100 | 6.32 | 3.44 | 1.34 | 1.76
CC1(C)[C@@H](Cn2cnc3c(=O)[nH]c(N)nc32)CC[C@@]1(C)CO | > 100 | > 100 | > 100 | > 100 | > 100 | > 100 | > 100 | > 100 | > 100 | > 100 | 
COC(=O)/C=C\C(C#N)(C#N)N=Cc1ccc(C)s1 | 34.7 | 3.5 | 3.53 | 10.1 | 19.1 | 3.92 | 1.64 | 43.6 | 13.1 | 9.81 | 
COCN1CCN=c2c1c1c3c(c4ccccc4n23)CCC1 | > 100 | > 100 | > 100 | > 100 | > 100 | > 100 | > 100 | > 100 | > 100 | > 100 | 
C=CC(C)(C)N[C@@H](C(=O)N1CCC[C@H]1c1nc(-c2nc(C(=O)OCC=C(C)C)c(C)o2)c(C)o1)C(C)C | 39.4 | 83.4 | 38.3 | 38.3 | 46.9 | 73.4 | 41.8 | 40.2 | 71.4 | 59.5 | 
CC1(C)CN(c2ccccc2)C(=O)C1OC(=O)[C@@]1(C)C[C@@H]2C=C[C@H]1C2 (some centres undefined) | 61.3 | 40.1 | 30.8 | 52.9 | 82.5 | 73.2 | 81.4 | 54.7 | 39.9 | > 100 | 
C=C1C(=O)O[C@H]2C/C(C)=C/CC/C(C)=C/CC[C@@](C)(O)[C@@H](I)C[C@@H]12 | 32 | 24.8 | 24.5 | 12.3 | 31.9 | 32.1 | 5.4 | 21.5 | 15.4 | 24.9 | 
COc1ccc2c(c1)nc1n2C(N)=Nc2ccccc2S1 | > 88.4 | > 80.6 | > 100 | > 100 | > 100 | > 92.3 | > 23.3 | > 100 | > 100 | 67.8 | 
CC(C)[C@H]1NC(=O)[C@H]2N=C(O[C@@H]2C)[C@@H]2CCCN2C(=O)[C@H](Cc2ccccc2)NC(=O)[C@@H]2CSC(=N2)[C@@H](Cc2ccccc2)NC(=O)[C@@H]2CSC1=N2 | > 100 | > 100 | > 100 | > 100 | > 100 | > 100 | > 100 | > 100 | > 100 | > 100 | 
CC(NC(=O)OCc1ccccc1)NC(=O)C(CC(=O)OC(C)(C)C)NC(=O)OC(C)(C)C (centres undefined) | > 100 | > 100 | > 100 | > 100 | > 100 | > 100 | > 100 | > 100 | > 100 | > 100 | 
O=c1c2ccccc2n2nnc3ccc(NCCCNCCNCCCNc4ccc5nnn6c7ccccc7c(=O)c4c56)c1c32 | > 37 | > 30 | 19.5 | 8.46 | > 26.6 | > 50 | > 50 | 37.6 | 21 | 16.8 | 
O=C(OCCN1CCCCC1)C(c1ccccc1)C1(O)CCSCC1 (centres undefined) | > 100 | > 100 | > 100 | > 100 | > 100 | > 100 | > 100 | > 100 | > 100 | > 100 | 
CN1C/C(=C\c2ccc(Cl)cc2)C(=O)/C(=C/c2ccc(Cl)cc2)C1 | 3.2 | 5.48 |  | 1.8 | > 100 | > 100 | 1.37 | > 100 | > 65.9 | 6.57 | 
